The values below are quoted from earlier work in US20120035103A1 (priority 2010, published 2012).

For the series, the system named is cells that line the nasal cavity.

`CCCCCCCCCCCCCCO[C@@H]1O[C@H](CO)[C@@H](O[C@H]2O[C@H](CO)[C@@H](O)[C@H](O)[C@H]2O)[C@H](O)[C@H]1O` [TDM, Tetradecyl-β-d-maltoside]: for the setting “0.125% TDM”, the “Toxicity to the cells that line the nasal cavity” value was “minimal toxicity”. Also, under “0.50% TDM, versus 0.125% TDM”, the “Appearance of the cells that line the nasal cavity” value was “became more evident”.
